Patent publication US12357723B2, “Antimicrobial silver iodate” (Innovotech, Inc., priority 2012, dated 2025)
Read-outs that look alike come from different tables or passages of the source.

Columns and labels:
[1] = Ag5IO6 solubility in water and saline, OECD Method (105) flask; assay type: physicochemical
Excerpt: The purpose of this study was to develop a basic understanding of the solubility (and stability) of Ag5IO6 in pure water and 0.9% (physiological saline), following OECD Method (105)—flask.

[2] = Basic compatibility of Ag5IO6 with gels (visual, pH, UV-Vis, XRD); assay type: physicochemical
Excerpt: The purpose of this study was to determine whether Ag5IO6 could be incorporated into various gels without reacting with the gels. Ag5IO6 powder was combined with various commercially available hydrogels and then visually examined for stability, along with UV-Vis analysis and x-ray diffraction.
Gels selected: Guardian Laboratories AquaThik™ (Xanthan gum, PEG-180; 3% in water); Lubrajel® RC (Water, glycerin, propylene glycol, polyacrylic acid, sodium polyacrylate, 0.18% methylparaben, 0.02% propylparaben), and Lubrajel® PF (Glycerin, glyceryl acrylate/acrylic acid copolymer); SteriLub™ (unknown composition); BASF Pluronic® F127+Carbowax 600 (Polyoxyethylene-polyoxypropylene block copolymer; 18% Pluronic, 15% Carbowax 600); ConvaTec DuoDerm® Hydroactive® Sterile Gel (pectin, sodium carboxymethylcellulose); MoInlycke Normlgel® (0.9% NaCl, H2O, xanthan gum); Smith & Nephew IntraSite Gel (Water>60%, propylene glycol 10-30%, absorbent polymer<10%-crilanomer, a Graft-T starch copolymer) and SoloSite Gel (Water>60%, glycerol 10-30%, absorbent polymer<10%, allantoin<1%, antiseptic/preservative<1%); carboxymethylcellulose gel (4% in water); Cremophor; and Gelrite (0.4% in water).
For each gel, the samples were mixed in a small glass container with fine Ag5IO6 powder to generate 500 ppm Ag5IO6 in the gels. Each of the above formulations were examined for visual signs of instability, such as dramatic viscosity changes, color changes, release of gas, deposition of precipitate that appears different from the original Ag5IO6, and temperature change during stirring (heat release).
UV-Vis Analysis: Samples were diluted to 1/10th their original concentration. For UV-Vis blanks, control gels (with no Ag5IO6) were prepared as described for each gel, and diluted to 1/10th as well. UV-Vis measurements were performed between 190-500 nm.
pHs of the gel formulations were measured with and without the Ag5IO6 added using pH indicator strips.

[3] = Ag5IO6 stability in solvents (isothermal TAM III heat flow, XRD); assay type: physicochemical
Description: The purpose of this study was to determine whether or not Ag5IO6 interacts with methanol, tetrahydrofuran, acetone, and acetonitrile. […] of Ag5IO6 was placed in a vial, 2 mL of the solvent was added, and the vial was placed in a TAM III for an isothermal run at room temperature for >24 h with solvent only as the reference. The heat flow was measured. After the run was complete, the solvents were allowed to flash off and the solids collected were submitted to XRD. Samples exposed following essentially the same method for only 18 h were also submitted for XRD

[4] = for Grain size: 90° C.

With [Ag+].[Ag+].[Ag+].[Ag+].[Ag+].[O-][I+]([O-])([O-])([O-])([O-])[O-] [Ag5IO6, pentasilver hexaoxoiodate] the Solubility ([1]; ddH2O) was 24.41 ± 0.87 µg/mL, the pH of solution ([1]; in ddH2O) was 8 and the “Solid material converted to Ag metal (XRD)” value ([1]; in ddH2O, end of experiment) was 0.1%. For the same compound, the “Solid material remaining as Ag5IO6 (XRD)” value ([1]; in ddH2O, end of experiment) was “approximately 99.9%”, the pH of solution ([1]; in saline) was 10 and the “Solid material converted to AgCl (XRD)” value ([1]; in saline, end of experiment) was “approximately 25%”. For the same compound, the Solubility ([1]; saline (0.9%)) was 0.61 ± 0.05 µg/mL, the “Ag5IO6 purity by XRD after mixing into gel” value ([2]; 500 ppm Ag5IO6 in AquaThik gel) was 100% and the “XRD: reaction of Ag5IO6 with gel” value ([2]; 500 ppm Ag5IO6 in Cremophor gel) was “no Ag5IO6 detected by the XRD analysis”. The “XRD: reaction of Ag5IO6 with gel” value ([2]; 500 ppm Ag5IO6 in DuoDerm hydrogel) was “remained pure”, the “XRD: reaction of Ag5IO6 with gel” value ([2]; 500 ppm Ag5IO6 in Gelrite (0.4% in water)) was “did not react” and the “XRD: reaction of Ag5IO6 with gel” value ([2]; 500 ppm Ag5IO6 in IntraSite gel) was “no reaction products”. For the same compound, the “XRD: reaction of Ag5IO6 with gel” value ([2]; 500 ppm Ag5IO6 in Lubrajel PF) was “had not reacted”, the “XRD: reaction of Ag5IO6 with gel” value ([2]; 500 ppm Ag5IO6 in Lubrajel RC) was “did not react” and the “XRD: reaction of Ag5IO6 with gel” value ([2]; 500 ppm Ag5IO6 in Normlgel (0.9% NaCl), AgCl found) was “incompatible under these conditions with this gel for long term storage”. For the same compound, the “Visual signs of instability after addition of Ag5IO6” value ([2]; 500 ppm Ag5IO6 in Pluronic F127 plus Carbowax 600, no XRD) was “undesirable physical changes in the gel”, the “XRD: reaction of Ag5IO6 with gel” value ([2]; 500 ppm Ag5IO6 in SoloSite gel) was “no reaction products” and the “Ag5IO6 purity by XRD after mixing into gel” value ([2]; 500 ppm Ag5IO6 in SteriLub gel) was 100%. The “XRD: reaction of Ag5IO6 with gel” value ([2]; 500 ppm Ag5IO6 in carboxymethylcellulose gel (4% in water)) was “not reactive”, the “Rank of solubility in organic solvents” value [3] was “methanol>>THF>acetone>acetonitrile” and the “Onset of significant reaction” value ([3]; acetonitrile (slower onset), room temperature) was “about 56 h”. For the same compound, the “Time blended without substantial reaction” value ([3]; all solvents (methanol, tetrahydrofuran, acetone, acetonitrile), room temperature) was less than 18 h, the “Onset of significant reaction” value ([3]; methanol, room temperature) was “about 33 h” and the “Onset of significant reaction” value ([3]; solvent printed as THE, room temperature) was “about 56 h”. It also gave a Grain size ([4]; Day 0) of 14 Å, a Grain size ([4]; Day 14) of 62 Å and a Grain size ([4]; Day 28) of 94 Å. For the same compound, the “Composition remaining Ag5IO6” value ([4]; 672 h) was 100% and the Shelf life ([4]; room temperature, extrapolated from accelerated storage) was greater than 2 years.
